Literature values in article PMC3792642 (Acta Crystallographica Section D: Biological Crystallography, 2013).

Tests used:
MtbVKOR = conditions: ref Dutton et al., 2010; cited from earlier work
Mtb = conditions: VKOR-dependent manner; ref Dutton et al., 2010; cited from earlier work

SMILES: CC(=O)CC(c1ccccc1)c1c(O)c2ccccc2oc1=O (centres unmarked) [warfarin]
- Inhibition of MtbVKOR (MtbVKOR): inhibit MtbVKOR
- Inhibition of growth of Mtb (Mtb): inhibit growth of Mtb
